Assays:
[1] = test system: P388 Mouse leukemia cells; experiment: Carcinolytic effect: inhibition of ^3 H-thymidine intake in P388 leukemia cells; format: cell-based; details: 2 hours then 1 hour with ^3 H-thymidine, vs. solvent control; for Percent inhibition against ^3 H-thymidine intake: 50 μM, 37° C
Description: P388 Mouse leukemia cells which were subjected to passage transplantation in CDF1 mice were suspended in RPMI1640 culture fluid containing 20 mM HEPES to a cell density of 5×10^5 cells/ml, and 1 ml each of aliquots were apportioned into test tubes. Each of the test samples was added to the suspension to a final concentration of 50 μM, and each preparation was incubated at 37° C with shaking (100 shuttles/min.). Two hours thereafter, ^3 H-thymidine was added to a final concentration of 0.25 μCi/ml, and the incubation was further carried out for 1 hour. Then the radioactivity taken in the cells was measured by a conventional method.

male ICR mice = experiment: Toxicity: single administration, life span observed for 3 weeks; format: in vivo
Description: Separately, 500 mg/kg of the above test compound was administered intraperitoneally to a group of eight male ICR mice, and their life spans were similarly observed for 3 weeks.

SMILES	Percent inhibition against ^3 H-thymidine intake [1]	mortality, intraperitoneal (male ICR mice; 500 mg/kg intraperitoneal, eight male ICR mice)	mortality, oral (male ICR mice; 2,000 mg/kg oral once, 0.5% CMC, four male ICR mice)	inhibition at 50 µM ([1]; Mus musculus, P388, 37° C, read-out: Percent inhibition against ^3 H-thymidine intake)
COc1ccc(COC(=O)CC[C@@H](C)[C@H]2CC[C@H]3[C@@H]4[C@H](O)C[C@@H]5C[C@H](OC(=O)c6ccc(OC(=O)N(CCCl)CCCl)cc6)CC[C@]5(C)[C@H]4C[C@H](O)[C@]23C)cc1 [Compound No. 52, p-Methoxybenzyl 3-O-[p-(N,N-bis(2-chloroethyl)aminocarbonyloxy)benzoyl] cholate]	88%	–	–	–
C[C@H](CCC(=O)O)[C@H]1CC[C@H]2[C@@H]3[C@H](O)C[C@@H]4C[C@H](OC(=O)Cc5ccc(N(CCCl)CCCl)cc5)CC[C@]4(C)[C@H]3C[C@H](O)[C@]12C [Compound No. 2, 3-O-[p-(N,N-bis(2-chloroethyl)amino)phenylacetyl] cholic acid]	90%	–	–	–
C[C@H](CCC(=O)O)[C@H]1CC[C@H]2[C@@H]3[C@H](O)C[C@@H]4C[C@H](OC(=O)CN(CCCl)CCCl)CC[C@]4(C)[C@H]3C[C@H](O)[C@]12C [Compound No. 38, 3-O-[N,N-bis(2-chloroethyl)aminoacetyl] cholic acid]	83%	No mortality case was observed	No mortality case was observed	–
C[C@H](CCC(=O)O)[C@H]1CC[C@H]2[C@@H]3[C@H](O)C[C@@H]4C[C@H](OC(=O)c5ccc(CN(CCCl)CCCl)cc5)CC[C@]4(C)[C@H]3C[C@H](O)[C@]12C [Compound No. 31, 3-O-[p-(N,N-bis(2-chloroethyl)aminomethyl)benzoyl] cholic acid]	94%	–	–	–
C[C@H](CCC(=O)O)[C@H]1CC[C@H]2[C@@H]3[C@H](O)C[C@@H]4C[C@H](O)CC[C@]4(C)[C@H]3C[C@H](O)[C@]12C [Cholic acid, reference compound]	–	–	–	2%

Source: US4810422A, “Bile acid derivatives, their salts and production thereof” (priority 1986, dated 1989)
